Among the data in PubChem BioAssay (NCI) are TGI values, retold here.

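Grown in 96-well plates, cells were treated for 48 hours with each compound at five concentrations. Insufficient inhibition: endpoint recorded as highest concentration tested. TGI: concentration producing complete growth inhibition.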

Some test systems named below: 786-0 renal; A549 NSCLC; COLO 205 colon; KM12 colon; LOX IMVI melanoma; NCI-H23 lung; NCI/ADR-RES ovarian; RXF 393 renal; SF-268 CNS; U251 CNS.
Holding throughout (experiment): NCI-60 cell line screen, 48 h

On to `O=c1[nH]c(=O)c2c3n(cc2[nH]1)CCCCC3`, for which the TGI with 786-0 renal, with A549 NSCLC, in the experiment with COLO 205 colon, in the experiment with KM12 colon, with LOX IMVI melanoma and in the experiment on NCI-H23 lung was over 100 µM throughout. The TGI with NCI/ADR-RES ovarian, in the experiment on RXF 393 renal, with SF-268 CNS and in the experiment on U251 CNS was over 100 µM each time.

`CCN(CC)CCCNC(=O)c1cc(-c2nccn2C)nc2ccccc12`: the TGI with 786-0 renal, in the experiment with A549 NSCLC, in the experiment on COLO 205 colon, in the experiment on KM12 colon, in the experiment on LOX IMVI melanoma and in the experiment on NCI-H23 lung was over 100 µM in each case. Also, the TGI in the experiment on NCI/ADR-RES ovarian, in the experiment with RXF 393 renal, in the experiment with SF-268 CNS and in the experiment on U251 CNS was over 100 µM in each case.

Take `COc1ccc(C(C)NNC(=O)c2ccncc2)cc1OC` (stereo not given): the TGI in the experiment on 786-0 renal, with A549 NSCLC, in the experiment with COLO 205 colon, with KM12 colon, in the experiment on LOX IMVI melanoma and with NCI-H23 lung was over 100 µM throughout. Further, the TGI in the experiment on NCI/ADR-RES ovarian, in the experiment with RXF 393 renal, in the experiment on SF-268 CNS and with U251 CNS was over 100 µM in each case.

With `CCOC(=O)c1cn2c(n1)sc1cc(F)ccc12`, the TGI with 786-0 renal, in the experiment on A549 NSCLC, in the experiment on COLO 205 colon, in the experiment with KM12 colon, in the experiment with LOX IMVI melanoma and in the experiment on NCI-H23 lung was over 100 µM throughout. For the same compound, the TGI in the experiment with NCI/ADR-RES ovarian, in the experiment with RXF 393 renal, in the experiment with SF-268 CNS and in the experiment on U251 CNS was over 100 µM in each case.

On to `C=C1C(=O)O[C@@H]2/C=C(C)/C=C\[C@@H]3O[C@@]3(C)C[C@@H](O)C12` (stereo not given in full), for which the TGI was 21.1 µM in the experiment on 786-0 renal; over 100 µM with A549 NSCLC; 21.1 µM in the experiment on COLO 205 colon; 31.8 µM with KM12 colon; 22.2 µM with LOX IMVI melanoma; 33.3 µM with NCI-H23 lung. In addition, the TGI turned out to be 33.4 µM in the experiment with NCI/ADR-RES ovarian, 76.4 µM with RXF 393 renal, 84.7 µM in the experiment on SF-268 CNS and 34.6 µM in the experiment on U251 CNS.

As for `O=[N+]([O-])c1ccc2nc(Nc3ccccc3)c(Nc3ccccc3)nc2c1`, the TGI was determined as 7.83 µM with 786-0 renal; 2.36 µM with A549 NSCLC; 2.97 µM in the experiment with COLO 205 colon; 2.78 µM with KM12 colon; 3.14 µM in the experiment on LOX IMVI melanoma; 4.26 µM in the experiment with NCI-H23 lung. The TGI is 6 µM with NCI/ADR-RES ovarian, 6.6 µM in the experiment with RXF 393 renal, 7.91 µM in the experiment with SF-268 CNS and 1.99 µM in the experiment with U251 CNS.

For the compound `CC(C)C(NC(=O)Oc1ccccc1)C(=O)NC1c2c(Br)sc(Br)c2C(=O)C1O` (stereo not given), the TGI with 786-0 renal was over 25 µM; in the experiment with A549 NSCLC, over 25 µM; with COLO 205 colon, 14.4 µM; in the experiment on KM12 colon, over 25 µM; in the experiment with LOX IMVI melanoma it was 8.91 µM; in the experiment on NCI-H23 lung, 8.41 µM. For the same compound, the TGI in the experiment on NCI/ADR-RES ovarian turned out to be 16.5 µM; in the experiment on RXF 393 renal it was 7.25 µM; with SF-268 CNS, 14.1 µM; in the experiment on U251 CNS, 9.53 µM.

For the compound `COc1ccc(S(=O)(=O)n2c3c(c4ccccc42)[C@@H]2[C@@H](CCCN2C(=O)CS(=O)c2ccc(C)cc2)[C@H](Cl)C3)cc1` (stereo not given in full), the TGI with 786-0 renal, in the experiment with A549 NSCLC, in the experiment with COLO 205 colon, in the experiment on KM12 colon, with LOX IMVI melanoma and in the experiment with NCI-H23 lung was over 100 µM throughout. The TGI with NCI/ADR-RES ovarian, in the experiment on RXF 393 renal, in the experiment with SF-268 CNS and in the experiment with U251 CNS was over 100 µM each time.

For the compound `CC(C)(CN1CCCCC1)C(/C=C/c1ccc(Cl)cc1)=N\NC(=O)N/N=C(/C=C/c1ccc(Cl)cc1)C(C)(C)CN1CCCCC1`, the TGI in the experiment on 786-0 renal is 11.1 µM; with A549 NSCLC, over 57 µM; with COLO 205 colon, 11.7 µM; in the experiment on KM12 colon it was 16.9 µM; in the experiment on LOX IMVI melanoma it was 5.97 µM; in the experiment with NCI-H23 lung, 10.3 µM. In addition, the TGI with NCI/ADR-RES ovarian is 29.4 µM; in the experiment on RXF 393 renal it was 8.24 µM; in the experiment on SF-268 CNS, 21.6 µM; with U251 CNS it was 12.6 µM.

Regarding `O=c1c(F)cn(Cc2c(Cl)cccc2Cl)c(=O)n1Cc1c(Cl)cccc1Cl`, the TGI in the experiment with 786-0 renal, in the experiment with A549 NSCLC, in the experiment with COLO 205 colon, with KM12 colon, with LOX IMVI melanoma and in the experiment with NCI-H23 lung was over 31.6 µM throughout. Also, the TGI with NCI/ADR-RES ovarian, in the experiment with RXF 393 renal, in the experiment with SF-268 CNS and in the experiment on U251 CNS was over 31.6 µM in each case.

Consider `COc1ccc(C2=CC(C(C)=C(C(N)=O)C(N)=O)C=C(c3ccc(Br)cc3)C2)c(OC)c1` (stereo not given), for which the TGI in the experiment with 786-0 renal, in the experiment with A549 NSCLC, in the experiment with COLO 205 colon, in the experiment on KM12 colon, with LOX IMVI melanoma and in the experiment with NCI-H23 lung was over 100 µM each time. For the same compound, the TGI in the experiment with NCI/ADR-RES ovarian, in the experiment on RXF 393 renal, with SF-268 CNS and in the experiment with U251 CNS was over 100 µM each time.

Regarding `CCOC(=O)c1nnn(CCCCO)c1C(=O)OCC`, the TGI with 786-0 renal, in the experiment with A549 NSCLC, in the experiment with COLO 205 colon, in the experiment on KM12 colon, in the experiment with LOX IMVI melanoma and in the experiment on NCI-H23 lung was over 100 µM in each case. The TGI in the experiment on NCI/ADR-RES ovarian, with RXF 393 renal, with SF-268 CNS and in the experiment on U251 CNS was over 100 µM throughout.

Regarding `Cc1ccc(S(=O)(=O)N2CC2CCCCC=O)cc1` (stereo not given), the TGI was over 100 µM in the experiment with 786-0 renal; over 100 µM in the experiment with A549 NSCLC; over 100 µM in the experiment with COLO 205 colon; over 100 µM in the experiment on KM12 colon; 56 µM in the experiment on LOX IMVI melanoma; over 100 µM in the experiment with NCI-H23 lung. In addition, the TGI in the experiment on NCI/ADR-RES ovarian, in the experiment with RXF 393 renal, in the experiment with SF-268 CNS and in the experiment on U251 CNS was over 100 µM each time.

Regarding `COCOC1/C=C/CCCCC(=O)C(C)C#CC1` (stereo not given), the TGI with 786-0 renal stood at 5.44 µM; in the experiment with A549 NSCLC it was 30.1 µM; in the experiment with COLO 205 colon, 5.4 µM; with KM12 colon it was 25.5 µM; with LOX IMVI melanoma it was 7.36 µM; with NCI-H23 lung, 16.3 µM. The TGI in the experiment on NCI/ADR-RES ovarian came to 14.4 µM; with RXF 393 renal it was 9.19 µM; with SF-268 CNS, 35.1 µM; in the experiment with U251 CNS it was 28 µM.
